According to patent US4342766A, “Novel dihydro-as-triazino[5,6-c]quinoline derivatives and a process for the preparation thereof” (priority 1980, dated 1982):

Tests used:
[1] = Narcosis potentiating effect (hexobarbital sleeping time); assay type: in vivo, mice; conditions: for ED50: Mus musculus, read-out: Narcosis potentiating effect ED50 p.o.; for Therapeutic index LD50/ED50 (narcosis potentiating effect): p.o., hexobarbital
Description: The narcosis potentiating effect of the novel compounds of the formula I was tested on groups consisting of 6 mice each. The animals belonging to the control group received an oral dosage of 20 ml/kg of 0.9 percent aqueous sodium chloride solution, whereas the other animals were treated orally with the compound to be tested.

[2] = Analgesic effect, acetic acid writhing test on mice; conditions: for ED50: Mus musculus, po, read-out: Analgesic effect ED50 p.o.; for Therapeutic index LD50/ED50 (analgesic effect): mice, p.o., acetic acid writhing
Description: The analgesic effect was studied by means of the acetic acid writhing test on mice. After the intraperitoneal administration of 0.4 ml of 0.5 percent acetic acid, the writhing responses were counted between the fifth and tenth minutes. The writhing number was calculated as the percentage of the control value. The compounds tested were orally administered to the animals 1 hour prior to the treatment with acetic acid. […] Paracetamole and phenylbutazone were used as reference substance.

[3] = Antiphlogistic effect, carrageenin paw test on rats (method of Winter); conditions: for ED50: Rattus norvegicus, po, 3 h, read-out: Antiphlogistic effect ED50 p.o.; for Therapeutic index LD50/ED50 (antiphlogistic effect): p.o., carrageenin paw test on rats, LD50 from mice
Description: The antiphlogistic effect of the novel compounds of the invention was investigated on rats by the method of Winter [J. Pharm. […] 0.1 ml of a 1 percent carrageenin suspension was injected, subcutaneously, into the plantar region of one of the hind paws. The compounds to be tested were administered orally into the animals 1 hour before the injection of the carrageenine suspension. The volume of the treated paw was measured by mercury-plethysmometer before and 3 hours after injection.

in vivo = conditions: mouse, mice, female and male, 18 to 24 g, oral
Description: The acute toxicity of the compounds of the formula I was determined on both female and male mice weighing 18 to 24 g. The compounds were administered orally.

[4] = Anticonvulsive effect, inhibition of the spasm provoked by electroshock; assay type: in vivo, white mice; conditions: for ED50: Mus musculus, white mice, oral 1 hour prior to electroshock (45 mA, 50 Hz, 0.4 sec), read-out: Inhibition of the spasm provoked by electroshock ED50 p.o.; for Therapeutic index LD50/ED50 (electroshock): mice, p.o.
Excerpt: The anticonvulsive effect of the novel compounds was studied on white mice weighing 20 to 25 g through the inhibition of the spasm developed by electroshock. The electroshock was provoked by means of corneal electrodes with a current intensity of 45 mA. The frequency of the current used was equivalent to 50 Hz, and the duration of each electroshock was 0.4 sec. The complete inhibition of the tonic extension of the hind limbs was taken as criterium of the anticonvulsive effect. The compounds to be tested were administered orally 1 hour prior to the electroshock.

[5] = Anticonvulsive effect, inhibition of spasms provoked by pentamethylenetetrazole; assay type: in vivo, white mice; conditions: for ED50: Mus musculus, white mice, oral 1 hour before pentamethylenetetrazole 125 mg/kg i.p., read-out: Inhibition of spasms provoked by pentamethylenetetrazole ED50 p.o.; for Therapeutic index LD50/ED50 (pentamethylenetetrazole): mice, p.o.
Description: The anticonvulsive effect of the compounds was also studied through the inhibition of the spasm provoked by pentamethylenetetrazole [6,7,8,9-tetrahydro-5H-tetrazoloazepine]. 125 mg/kg doses of pentamethylenetetrazole were administered intraperitoneally into white mice divided into groups consisting of 6 animals and the tonic extension spasms of the hind limbs were registered. The compounds to be tested were administered orally 1 hour before the injection of pentamethylenetetrazole.

Tetrabenazine antagonism = assay type: in vivo; conditions: for ED50: Mus musculus, oral 30 minutes before tetrabenazine 50 mg/kg i.p., counts at 30, 60, 90 and 120 minutes, read-out: Tetrabenazine antagonism ED50 p.o.; for Therapeutic index LD50/ED50 (tetrabenazine antagonism): p.o.
Description: The tetrabenazine antagonizing effect of the novel compounds was tested on groups consisting of 10 mice each. The animals belonging to the control group received an oral dosage of 20 ml/kg of 0.9 percent aqueous sodium chloride solution, whereas the other animals were treated orally with the compound to be tested. 30 minutes after the introduction of the active agent or the vehicle, 50 mg/kg of tetrabenazine [3-isobutyl-9,10-dimethoxy-1,2,3,4,6,7-hexahydrobenzo[a]quinolizine-2-one]were administered intraperitoneally. The animals with closed palpebral fissures were counted 30, 60, 90 and 120 minutes after the administration of tetrabenazine. The data obtained in the individual measuring times were added, and the percentage inhibition related to the controls was calculated. Amitriptylin was employed as reference compound.

[6] = mice, oral 1 hour before hexobarbital 40 mg/kg i.v., 150 percent prolongation of sleeping time = positive response

CCCCCC1=Nc2cnc3ccccc3c2N(C(C)=O)N1 [Example 1, 1-acetyl-3-amyl-1,2-dihydro-as-triazino[5,6-c]quinoline]
ED50 [1, 6]: 200 mg/kg
Therapeutic index LD50/ED50 (narcosis potentiating effect) ([1]; mice): 10
ED50 [2]: 125 mg/kg
Therapeutic index LD50/ED50 (analgesic effect) [2]: 16
ED50 [3]: 100 mg/kg
Therapeutic index LD50/ED50 (antiphlogistic effect) [3]: 20
LD50 (in vivo): 2000 mg/kg

CC(=O)N1C(c2ccccc2)=NNc2c1cnc1ccccc21 [Example 3, 4-Acetyl-3-phenyl-1,4-dihydro-as-triazino[5,6-c]quinoline]
ED50 [1, 6]: 150 mg/kg
Therapeutic index LD50/ED50 (narcosis potentiating effect) ([1]; mice): 13.3
LD50 (in vivo): 2000 mg/kg

CCCCC1=Nc2cnc3ccccc3c2N(C(C)=O)N1 [Example 6, 1-Acetyl-3-butyl-1,2-dihydro-as-triazino[5,6-c]quinoline]
ED50 [1, 6]: 125 mg/kg
Therapeutic index LD50/ED50 (narcosis potentiating effect) ([1]; mice): 16
ED50 [2]: 320 mg/kg
Therapeutic index LD50/ED50 (analgesic effect) [2]: 6
ED50 [3]: 36 mg/kg
Therapeutic index LD50/ED50 (antiphlogistic effect) [3]: 55
ED50 [4]: 160 mg/kg
Therapeutic index LD50/ED50 (electroshock) [4]: 12.5
ED50 [5]: 90 mg/kg
Therapeutic index LD50/ED50 (pentamethylenetetrazole) [5]: 22,2
LD50 (in vivo): 2000 mg/kg

CCCCCCCCC1=Nc2cnc3ccccc3c2N(C(C)=O)N1 [Example 7, 1-Acetyl-3-octyl-1,2-dihydro-as-triazino[5,6-c]quinoline]
ED50 [4]: 450 mg/kg
Therapeutic index LD50/ED50 (electroshock) [4]: 4.4
ED50 [5]: 350 mg/kg
Therapeutic index LD50/ED50 (pentamethylenetetrazole) [5]: 5,7
LD50 (in vivo): 2000 mg/kg

CC(=O)N1NC(CC(C)C)=Nc2cnc3ccccc3c21 [Example 8, 1-Acetyl-3-isobutyl-1,2-dihydro-as-triazino[5,6-c]quinoline]
ED50 [1, 6]: 70 mg/kg
Therapeutic index LD50/ED50 (narcosis potentiating effect) ([1]; mice): 28.5
ED50 [4]: 200 mg/kg
Therapeutic index LD50/ED50 (electroshock) [4]: 10
ED50 (Tetrabenazine antagonism): 20 mg/kg
Therapeutic index LD50/ED50 (tetrabenazine antagonism) (Tetrabenazine antagonism): 100
ED50 [5]: 72 mg/kg
Therapeutic index LD50/ED50 (pentamethylenetetrazole) [5]: 27,8
LD50 (in vivo): 2000 mg/kg

CC(=O)N1NC(C(C)(C)C)=Nc2cnc3ccccc3c21 [Example 9, 1-Acetyl-3-tert.-butyl-1,2-dihydro-as-triazino[5,6-c]quinoline]
ED50 [5]: 165 mg/kg
Therapeutic index LD50/ED50 (pentamethylenetetrazole) [5]: 12
LD50 (in vivo): 2000 mg/kg

CC(=O)N1NC(CCC(C)C)=Nc2cnc3ccccc3c21 [Example 10, 1-Acetyl-3-(3'-methyl-1'-butyl)-1,2-dihydro-as-triazino[5,6-c]quinoline]
ED50 [1, 6]: 100 mg/kg
Therapeutic index LD50/ED50 (narcosis potentiating effect) ([1]; mice): 20
ED50 [2]: 100 mg/kg
Therapeutic index LD50/ED50 (analgesic effect) [2]: 20
ED50 [3]: 200 mg/kg
Therapeutic index LD50/ED50 (antiphlogistic effect) [3]: 10
ED50 (Tetrabenazine antagonism): 14.5 mg/kg
Therapeutic index LD50/ED50 (tetrabenazine antagonism) (Tetrabenazine antagonism): 138
LD50 (in vivo): 2000 mg/kg

CCC(CC)C1=Nc2cnc3ccccc3c2N(C(C)=O)N1 [Example 11, 1-Acetyl-3-[1'-ethyl-1'-propyl]-1,2-dihydro-as-triazino[5,6-c]quinoline]
ED50 (Tetrabenazine antagonism): 54 mg/kg
Therapeutic index LD50/ED50 (tetrabenazine antagonism) (Tetrabenazine antagonism): 37

CN(C)CCC=C1c2ccccc2CCc2ccccc21 [amitriptylin, 5-(3-dimethylaminopropylidene)-10,11-dihydro-5H-dibenzo[a,d]cycloheptene, reference compound]
ED50 (Tetrabenazine antagonism): 12 mg/kg
Therapeutic index LD50/ED50 (tetrabenazine antagonism) (Tetrabenazine antagonism): 19

CCCC(C)(COC(N)=O)COC(N)=O [meprobamate, 2-methyl-2-propylpropane-1,3-diol dicarbamate, reference compound]
ED50 ([1]; po): 260 mg/kg
Therapeutic index LD50/ED50 (narcosis potentiating effect) ([1]; mice): 4.2

CC(=O)Nc1ccc(O)cc1 [paracetamole, p-hydroxyacetanilide, reference compound]
ED50 [2]: 180 mg/kg
Therapeutic index LD50/ED50 (analgesic effect) [2]: 3
LD50 (in vivo): 540 mg/kg

CCCCC1C(=O)N(c2ccccc2)N(c2ccccc2)C1=O [phenylbutazone, 4-butyl-1,2-diphenylpyrazolidine-3,5-dione, reference compound]
ED50 [2]: 60 mg/kg
ED50 [3]: 100 mg/kg

CN1C(=O)OC(C)(C)C1=O [trimethadione, 3,5,5-trimethyloxazolidine-2,4-dione, reference compound]
ED50 [4]: 400 mg/kg
Therapeutic index LD50/ED50 (electroshock) [4]: 5.3
ED50 [5]: 490 mg/kg
Therapeutic index LD50/ED50 (pentamethylenetetrazole) [5]: 4,3
LD50 (in vivo): 2050 mg/kg
